Source: ChEMBL document CHEMBL1151057, “Difunctional enols of N-protected amino acids as low molecular weight and novel inhibitors of HIV-1 protease” (Bioorg Med Chem Lett, 1993)

These compounds were tested against T1, Human immunodeficiency virus type 1 protease (Human immunodeficiency virus 1, UniProt Q72874) (assay: Apparent inhibitory constant against HIV-1 protease was determined). Conditions: read-out: Ki app; call rule not given here.

Row | Compound | Ki [µM]
1 | CC(C)(C)OC(=O)N[C@H](C(=O)/C(C#N)=C(\O)c1ccccc1)C(=O)C(N)Cc1ccccc1 (stereo partly drawn) | 320
2 | CC(C)(C)OC(=O)N[C@@H](Cc1ccccc1)/C(O)=C(\C#N)c1c(F)c(F)c(F)c(F)c1F | 0.48
3 | N#C/C(=C(/O)[C@H](Cc1ccccc1)NC(=O)OCc1ccccc1)c1ccc([N+](=O)[O-])cc1 | 30
4 | CC(=O)NC(CC(C)C)C(=O)N[C@@H](Cc1ccccc1)/C(O)=C(\C#N)c1ccc([N+](=O)[O-])cc1 (stereo partly drawn) | 9
5 | N#C/C(=C(/O)[C@H](Cc1ccccc1)NC(=O)OCC1c2ccccc2-c2ccccc21)c1ccc([N+](=O)[O-])cc1 | 78
6 | CC(=O)NC(CC(C)C)C(=O)N[C@@H](Cc1ccccc1)/C(O)=C(\C#N)c1c(F)c(F)c(F)c(F)c1F (stereo partly drawn) | 7

Continued, values first:

Row | Ki [µM] | Compound
7 | 689 | CC(C)(C)OC(=O)N[C@@H](C(=O)C(N)Cc1ccccc1)/C(O)=C/c1ccc([N+](=O)[O-])cc1 (stereo partly drawn)
8 | 54 | CC(C)(C)OC(=O)N[C@@H](C(=O)[C@@H](N)Cc1ccccc1)/C(O)=C(\C#N)c1ccc([N+](=O)[O-])cc1
9 | 18 | CC(C)(C)OC(=O)N[C@@H](C(=O)C(N)Cc1c[nH]c2ccccc12)/C(O)=C(\C#N)c1ccc([N+](=O)[O-])cc1 (stereo partly drawn)
10 | 12 | CC(C)(C)OC(=O)N[C@@H](C(=O)C(N)Cc1ccc(OCc2ccccc2)cc1)/C(O)=C(\C#N)c1ccc([N+](=O)[O-])cc1 (stereo partly drawn)
11 | 181 | CC(C)(C)OC(=O)N[C@@H](C(=O)C1CCCN1)/C(O)=C(\C#N)c1ccc([N+](=O)[O-])cc1 (stereo partly drawn)
12 | 2.3 | CC(C)(C)OC(=O)N[C@@H](Cc1ccccc1)/C(O)=C(\C#N)c1ccc([N+](=O)[O-])cc1
13 | 15 | CC(C)(C)OC(=O)N[C@@H](C(=O)C(N)CC1CCCCC1)/C(O)=C(\C#N)c1ccc([N+](=O)[O-])cc1 (stereo partly drawn)
14 | 60 | CC(C)(C)OC(=O)N[C@@H](C(=O)C(N)Cc1ccc([N+](=O)[O-])cc1)/C(O)=C(\C#N)c1ccc([N+](=O)[O-])cc1 (stereo partly drawn)
15 | 38 | CC(C)(C)OC(=O)N[C@@H](C(=O)C(N)Cc1ccc2ccccc2c1)/C(O)=C(\C#N)c1ccc([N+](=O)[O-])cc1 (stereo partly drawn)
16 | 30 | CC(C)(C)OC(=O)N[C@@H](C(=O)C(N)c1ccccc1)/C(O)=C(\C#N)c1ccc([N+](=O)[O-])cc1 (stereo partly drawn)

The compounds below were run against T1, Human immunodeficiency virus type 1 protease (assay: Inhibitory constant against HIV-1 protease was determined). Conditions: not given.

Row | Ki [µM] | Compound
17 | 152 | CC(=O)NC(CC(C)C)C(=O)N[C@@H](Cc1ccccc1)/C(O)=C(\C#N)S(=O)(=O)c1ccccc1 (stereo partly drawn)
18 | 206 | CCOP(=O)(OCC)/C(C#N)=C(\O)[C@H](Cc1ccccc1)NC(=O)C(CC(C)C)NC(C)=O (stereo partly drawn)
19 | 209 | CO/C(O)=C(/C#N)C(=O)[C@H](Cc1ccccc1)NC(=O)C(CC(C)C)NC(C)=O (stereo partly drawn)
20 | 9.5 | CC(=O)NC(CC(C)C)C(=O)N[C@@H](Cc1ccccc1)/C(O)=C(\C#N)c1ccc([N+](=O)[O-])cc1 (stereo partly drawn)
21 | 168 | CC(=O)NC(CC(C)C)C(=O)N[C@@H](Cc1ccccc1)/C(O)=C(\C#N)c1ccncc1 (stereo partly drawn)

What follows are compounds tested against T1, Human immunodeficiency virus type 1 protease (assay: Inhibitory concentration required to inhibit HIV-1 protease was determined). Conditions: not given.

Row | IC50 [µM] | Compound
22 | 58 | CC(C)(C)OC(=O)NCC(=O)N[C@@H](Cc1ccccc1)/C(O)=C(\C#N)c1ccc([N+](=O)[O-])cc1

These compounds were tested against T1, Human immunodeficiency virus type 1 protease (assay: Inhibitory constant against HIV-1 protease at 400 uM; NI means no inhibition). Conditions: not given.

Row | Compound | Ki
23 | CC(=O)NC(CC(C)C)C(=O)N[C@@H](Cc1ccccc1)C(O)=C(C#N)C#N (stereo partly drawn) | Not Active
